The values that follow come from patent publication US5869494A, “Uses for barbituric acid analogs” (priority 1997, dated 1999).

For this assay, the system named is Daudi human lymphoma cells. Nature of the assay: Cytotoxicity for lymphoma cells (Daudi). Format: cell-based. The following applies: Homo sapiens, Daudi, 150 μg/ml, time not stated; read-out: cell kill. The method, then:
In the following examples, tumor cells were treated with varying concentrations of compounds C1, C2, C4 or C5 dissolved in absolute ethanol. To limit any non-specific toxicity, the final concentration of ethanol was not allowed to exceed 0.5%. Stock concentrations of 5 mg/ml or 20 mg/ml were used. Viability of cells was determined in some studies by the trypan blue dye exclusion method. In other studies, cell viability/proliferation activity was determined by MTT assay by using a kit obtained from Promega, (Promega Corp., Madison, Wis. 53711). For this assay, a 100 μl cell suspension containing 5-10^3 monolayer cells or 1×10^5 suspension cells was placed in the wells of a 96-well microtiter plate. After overnight incubation, cells were treated with different concentrations of the test compound. Control wells received vehicle only. After 24, 48, 72 or 96 h of incubation, 50 μl of MTT dye solution was added. After 4 h of incubation at 37° C., 100 μl of solubilization/stop solution was added. After another h of incubation, cells were mixed using a multi-channel pipet and the absorption of the dye color was recorded at 570 nm using a plate reading absorption spectrophotometer.
The viability of the cells was
Compounds C4 and C5 were also tested for toxicity against human lymphoma Daudi cells.

As for `O=C1CC(=O)NC(=S)N1` [Compound C4], the cytotoxicity at 150 µg/mL is less than 20%.
As to `CN1C(=O)CC(=O)N(C)C1=S` [Compound C5], the cytotoxicity at 150 µg/mL is less than 20%.
